Test results published in PubChem BioAssay (NCI).
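Each compound was tested at five concentrations against cells in 96-well plates for 48 hours. TGI marks complete inhibition of growth.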

Assays:
Experiment in all cases: NCI tumour cell line growth inhibition, 48 h
[1] = system: 786-0 renal
[2] = system: A498 renal
[3] = system: A549 NSCLC
[4] = system: ACHN renal
[5] = system: COLO 205 colon
[6] = system: DLD-1 colon
[7] = system: DMS 114 small cell lung
[8] = system: EKVX NSCLC
[9] = system: HCC-2998 colon
[10] = system: HCT-116 colon
[11] = system: HCT-15 colon
[12] = system: HL-60(TB) leukemia
[13] = system: HOP-62 NSCLC
[14] = system: HOP-92 NSCLC
[15] = system: HT29 colon
[16] = system: IGROV1 ovarian
[17] = system: K-562 leukemia
[18] = system: KM12 colon
[19] = system: KM20L2 colon
[20] = system: LXFL 529 NSCLC
[21] = system: M14 melanoma
[22] = system: M19-MEL melanoma
[23] = system: MALME-3M melanoma
[24] = system: NCI-H226 lung
[25] = system: NCI-H23 lung
[26] = system: NCI-H460 lung
[27] = system: OVCAR-3 ovarian
[28] = system: OVCAR-5 ovarian
[29] = system: OVCAR-8 ovarian
[30] = system: RPMI-8226 leukemia
[31] = system: SN12C renal
[32] = system: SNB-19 CNS
[33] = system: SNB-75 CNS
[34] = system: SNB-78 CNS
[35] = system: SW-620 colon
[36] = system: U251 CNS
[37] = system: UACC-62 melanoma
[38] = system: UO-31 renal
[39] = system: BT-549 breast
[40] = system: CAKI-1 renal
[41] = system: CCRF-CEM leukemia
[42] = system: DU-145 prostate
[43] = system: HS 578T breast
[44] = system: LOX IMVI melanoma
[45] = system: MCF7 breast
[46] = system: MDA-MB-231 breast
[47] = system: MDA-MB-435
[48] = system: MDA-N
[49] = system: MOLT-4 leukemia
[50] = system: NCI-H522 lung
[51] = system: NCI/ADR-RES ovarian
[52] = system: OVCAR-4 ovarian
[53] = system: PC-3 prostate
[54] = system: RXF 393 renal
[55] = system: SF-268 CNS
[56] = system: SF-295 CNS
[57] = system: SF-539 CNS
[58] = system: SK-MEL-2 melanoma
[59] = system: SK-MEL-28 melanoma
[60] = system: SK-MEL-5 melanoma
[61] = system: SK-OV-3 ovarian
[62] = system: SR leukemia
[63] = system: T-47D breast
[64] = system: TK-10 renal
[65] = system: UACC-257 melanoma

COc1cccc(C2CC(C)=Nc3c(ccc4c3C(=O)c3ccccc3C4=O)N2)c1O (configuration not stated)
TGI [1]: > 100 µM | TGI [2]: > 100 µM | TGI [3]: > 100 µM | TGI [4]: > 100 µM | TGI [5]: > 100 µM | TGI [6]: > 100 µM | TGI [7]: > 100 µM | TGI [8]: > 100 µM | TGI [9]: > 100 µM | TGI [10]: > 100 µM | TGI [11]: > 100 µM | TGI [12]: > 100 µM | TGI [13]: > 100 µM | TGI [14]: > 100 µM | TGI [15]: > 100 µM | TGI [16]: > 100 µM | TGI [17]: > 100 µM | TGI [18]: > 100 µM | TGI [19]: > 100 µM | TGI [20]: > 100 µM | TGI [21]: > 100 µM | TGI [22]: > 100 µM | TGI [23]: > 100 µM | TGI [24]: > 100 µM | TGI [25]: > 100 µM | TGI [26]: > 100 µM | TGI [27]: 95.1 µM | TGI [28]: > 100 µM | TGI [29]: > 100 µM | TGI [30]: > 100 µM | TGI [31]: > 100 µM | TGI [32]: > 100 µM | TGI [33]: > 100 µM | TGI [34]: > 100 µM | TGI [35]: > 100 µM | TGI [36]: > 100 µM | TGI [37]: > 100 µM | TGI [38]: > 100 µM

N#Cc1nc(-c2cccs2)oc1N
TGI [1]: > 100 µM | TGI [2]: > 100 µM | TGI [3]: > 100 µM | TGI [4]: > 100 µM | TGI [39]: > 100 µM | TGI [40]: 53.1 µM | TGI [41]: > 100 µM | TGI [5]: > 100 µM | TGI [42]: > 100 µM | TGI [8]: > 100 µM | TGI [9]: > 100 µM | TGI [10]: > 100 µM | TGI [11]: > 100 µM | TGI [12]: > 100 µM | TGI [13]: > 100 µM | TGI [14]: > 100 µM | TGI [43]: > 100 µM | TGI [15]: > 100 µM | TGI [16]: > 100 µM | TGI [17]: > 100 µM | TGI [18]: > 100 µM | TGI [44]: > 100 µM | TGI [21]: > 100 µM | TGI [23]: > 100 µM | TGI [45]: > 100 µM | TGI [46]: > 100 µM | TGI [47]: > 100 µM | TGI [48]: > 100 µM | TGI [49]: > 100 µM | TGI [24]: > 100 µM | TGI [25]: > 100 µM | TGI [26]: > 100 µM | TGI [50]: 92 µM | TGI [51]: > 100 µM | TGI [27]: > 100 µM | TGI [52]: > 100 µM | TGI [28]: > 100 µM | TGI [29]: > 100 µM | TGI [53]: > 100 µM | TGI [30]: > 100 µM | TGI [54]: > 100 µM | TGI [55]: > 100 µM | TGI [56]: > 100 µM | TGI [57]: > 100 µM | TGI [58]: > 100 µM | TGI [59]: > 100 µM | TGI [60]: > 100 µM | TGI [61]: > 100 µM | TGI [31]: > 100 µM | TGI [32]: > 100 µM | TGI [33]: > 100 µM | TGI [62]: > 100 µM | TGI [35]: > 100 µM | TGI [63]: > 100 µM | TGI [64]: > 100 µM | TGI [36]: > 100 µM | TGI [65]: > 100 µM | TGI [37]: > 100 µM | TGI [38]: > 100 µM
